Reference: patent US20100129831A1, “METHODS FOR DIAGNOSING HYPERSENSITIVITY REACTIONS” (priority 2007, published 2010)

System: acute interstitial nephritis
Assay: oral glucocorticoid treatment of acute interstitial nephritis (case report)
Format: in vivo, human
Conditions: 1 mg/kg, creatinine gradually declined
Experimental: Severe acute interstitial nephritis (AIN) was diagnosed based on needle biopsy. Oral glucocorticoid treatment (prednisone 1 mg/kg) was begun and was effective. Creatinine gradually declined over the next 8 weeks (Cr-3.5 mg/dL); glucose levels also declined. Another course of steroids was initiated, after which the creatinine level further declined, stabilizing around a level of 1.8 mg/dL, close to the previous value of 1.4 mg/dL. While investigated as to the etiology of their newly diagnosed AIN, the patient described the use of an alternative medicine hypnotic or sedative OTC, “Region-Laila.” Region's leaflet lists 4 active ingredients: Passiflora incarnata 250 mg, Scutellaria laterifolia 50 mg, Humulus Lupullus 50 mg and Melissa officinalis 25 mg.

## C[C@]12C=CC(=O)C=C1CC[C@@H]1[C@@H]2C(=O)C[C@@]2(C)[C@H]1CC[C@]2(O)C(=O)CO [prednisone]
  treatment outcome in acute interstitial nephritis: effective
